# Assay results as given in patent publication US20100112012A1, “MODULATION OF IMMUNE RESPONSES” (CLEVELAND CLINIC FOUNDATION, priority 2005, published 2010).
# “Also recorded” adds a separate entry of the source. Like-named read-outs stand apart in the source and are kept apart here.
# Columns and labels:
# NF-κB [1] = experiment: NF-κB-dependent reporter in H1299-NF-kBLuc cells; assay type: cell-based, human; details: for basal activity of NF-κB: H1299-NF-κBLuc cells, tested side-by-side with 9AA
# Protocol: (§1) Transient transfections. 2×10^5 cells were plated into 6-well plates and, after overnight incubation, transfected with Lipofectamin Plus reagent (Gibco BRL) with 0.5 μg of reporter plasmids (p21-ConALuc or pNF-κBLuc) in combination with different concentrations of plasmids expressing p53, Arf, Ss-IκB, or siHDM2. Corresponding empty vectors were added in all transfections up to 2 μg of total DNA. Normalization of transfection efficiency was done by adding 0.2 μg of pCMV-LacZ plasmid. Luciferase activity and β-galactosidase activity were measured in lysates prepared 48 hours after transfection with Cell Lysis Buffer (Promega) by the luciferase assay system (Promega) or β-galactosidase enzyme system (Promega). Luminometric and colorimetric reactions were read on the Wallack 1420 plate reader (Perkin Elmer). Stable transduction of reporters. 2×10^4 cells with integrated reporter were plated in 96-well plates. After overnight incubation, chemicals or media from lentivirus-producing cells were added. At different times, cell lysates were prepared using Reporter Lysis Buffer (Promega). Luciferase or β-galactosidase activity and protein concentration were measured in aliquots of cell lysates using standard kits (Promega, Luciferase and β-galactosidase assay systems, Biorad Protein Assay Kit).
# p53 [2] = experiment: p53-responsive reporter activity in tumor cells (HT1080 and others); assay type: cell-based, human; details: for time of peak (maximum) p53 reporter activity: HT1080 cells
# Protocol: as §1
# p53-deficient cells [3] = experiment: Survival of isogenic pairs of tumor cells differing in p53 expression; details: isogenic pairs of cell lines, shRNA-mediated p53 knockdown
# Protocol: (§4) All cells were maintained in RPMI 1640 medium, supplemented with 10% FBS, 1 mM sodium pyruvate, 10 mM Hepes buffer, 55 nM β-mercaptoethanol and antibiotics. […] Cells with inhibited p53 expression were generated by retroviral transduction of pBabeH1-sip53 or pBabeH1-siGFP vectors for siRNA expression with following selection on puromycin.
# (§5) Clonogenic survival. 5×10^3 cells were plated in 6-well plates and treated with different concentrations of drugs for 24 hours. Then fresh drug-free medium was added and the numbers of colonies were estimated 7-14 days later. Growth inhibition assay. […] Cell survival was estimated after an additional 48 hours, using standard Methylene Blue staining followed by extraction and colorimetrical detection of the dye.
# p53 [4] = experiment: Screening for p53-activating compounds, p53-responsive reporter in RCC45ConALacZ cells; assay type: cell-based, human
# Protocol: as §1
# The DiverSet library of 34,000 chemical compounds and focused libraries of structural analogues of selected hits were provided by Chembridge, Calif. Cell lines with p53- or NF-κB-responsive luciferase or β-galactosidase reporters were described previously (5, 7). For screening chemicals, 2×10^4 RCC45ConALacZ cells (RCC45-based p53 reporter cells) were plated per well of 96-well plates in 200 μL of phenol-red-free RPMI medium with standard additions. After overnight incubation, the compounds were added to final concentrations of 5-15 μM (0.2 μL of compound in DMSO per well). […] After 24 h, lysis buffer with ortho-nitrophenyl-β-D-galactopyranoside (ONPG) was added and β-galactosidase activity was estimated colorimetrically by a multiwell plate reader.
# RCC cell lines = experiment: Growth inhibition assay, RCC, non-RCC and normal kidney (NKE) cells; assay type: cell-based, human
# Protocol: Growth inhibition assay. […] Cell survival was estimated after an additional 48 hours, using standard Methylene Blue staining followed by extraction and colorimetrical detection of the dye.
# p65 subunit of NF-κB = experiment: Phosphorylation of serine 536 of p65 (Western analysis); assay type: cell-based, human; details: basally and after TNF-dependent induction; 9AA 10 μM
# Protocol: (§2) Cells were lysed in RIPA buffer (25 mM Tris HCl, pH 7.2, 125 mM NaCl, 1% NP40, 1% sodium deoxycholate, 1 mM EDTA) containing 1 mM PMSF (Sigma), 10 ug/ml of aprotinin (Sigma) and 10 ug/ml of leupeptin (Sigma). Protein concentrations were determined with the BioRad Dc protein assay kit. Equal protein amounts were run on gradient 4-20% precast gels (Novex) and blotted onto PVDF membranes (Amersham). The following antibodies were used: anti-p53—monoclonal mouse DO1 (Santa-Cruz), anti-p21—monoclonal mouse F-5 (Santa-Cruz), anti-mdm2—monoclonal mouse SMP14 (Santa-Cruz), anti-p65—(C20, Santa Cruz), anti-phospho-p65—(ser536, Cell Signaling), anti-IκBa—(C21, Santa Cruz), anti-p50—(NLS, Santa Cruz), anti-IKK1 (Cell Signaling), anti-γH2X (Cell Signaling), anti-actin (Santa Cruz). p53 phosphorylation status was analyzed using the phospho-p53 sampler kit from Cell Signaling according to the manufacturer's recommendations. HRP-conjugated secondary antibodies were purchased from Santa Cruz. Quantitation of the data was performed using Quantity One software from BioRad.
# IκBα = IκBα level (Western analysis); assay type: cell-based, human
# Protocol: as §2
# p53 [5] = experiment: p53, p21 and Mdm2 levels in treated cells (Western analysis); assay type: cell-based, human
# Protocol: as §2
# histone H2A.X = experiment: Immunofluorescent detection of phosphorylated histone H2A.X; assay type: cell-based, human; details: HT1080 cells, 10 μM
# From the text: (§3) All washings were done with blocking solution.
# topoisomerase II = experiment: DNA topoisomerase II activity assay; assay type: cell-based, human; details: direct in vitro assay, 1 h
# p53-deficient cells [6] = tested on: p53-deficient cells
# Protocol: as §4, §5
# RCC45 and RCC54 cells = experiment: Growth arrest or apoptosis of RCC cells treated with 9AA; assay type: cell-based, human
# HT1080 cells = experiment: Cell cycle analysis; assay type: cell-based, human; details: p53-dependent
# Protocol: At the end of the incubation period, cells were collected, fixed and stained with propidium iodide as previously described (3a). DNA content was measured using FACScalibur (Becton Dickinson) and analyzed using CellQuest software.
# p53 [7] = experiment: Phosphorylation status of p53 (Western analysis); assay type: cell-based, human; details: RCC45 cells, 9AA 5 μM, 16 h
# Protocol: as §2
# NF-κB [8] = experiment: Electromobility shift assay and immunofluorescent staining of nuclear NF-κB; assay type: cell-based, human
# From the text: as §3
# proteasomal activity = experiment: Proteasome inhibitor assay; assay type: biochemical; details: direct in vitro assay (not shown)
# From the text: The kit for assaying proteasomal activity was purchased from Boston Biochem, Inc. and used according to the manufacturer's recommendations.
# p53 [9] = experiment: Transient transfection of sr-IκB with p53-responsive reporter; assay type: cell-based, human; details: ACHN cells, 9AA 10 μM, 24 h
# Protocol: as §1
# ACHN cells = experiment: Experimental chemotherapy of tumor xenografts; assay type: in vivo, nude mice; details: ACHN xenograft nude mice; QC 50 mg/kg; 5-fluorouracil 35 mg/kg
# Protocol: NIH Swiss athymic nude, male mice, 5-6 weeks old, were purchased from Harlan. 5×10^6 tumor cells were inoculated into the flanks of mice in 100 μL of PBS. When tumors reached 5 mm in diameter, intraperitoneal injections of drugs were started in 100 μL of a solution of 50% DMSO in PBS (except for quinacrine, which was dissolved in PBS). As vehicle, 50% DMSO solution in PBS was used. Tumor size was measured in three dimensions every other day.
# p53 [10] = experiment: p53 reporter in organ cultures of human RCC tumor samples; assay type: cell-based; details: organ cultures of adjacent normal kidney, 12 hours
# Protocol: FIG. 11. QC can activate p53 transactivation in organ cultures of human RCC tumor samples. Fresh surgically removed samples of tumor and adjacent normal kidney were cut into small pieces and put into media containing ConALacZ virus (5×10^7 TU/ml) with […] of polybrene for 4 hours. 24 hours after infection, tissue pieces (at least three per treatment) were incubated with media containing quinacrine or doxorubicin for 12 hours. Then the tissues were fixed for 30 min in PBS containing 0.5% glutaraldehyde and 1 mM MgCl2. Pieces of tumor were stained in PBS solution containing X-gal (1 mM MgCl2, 3.3 mM K4Fe(CN)6, 3.3 mM K3Fe(CN)6, 0.02% NP40, 0.2% X-gal) overnight at 37° C. Stained specimens were analyzed microscopically by squeezing pieces of tumor and normal tissues between two glass slides.
# [11] = PLA2 inhibitors, data not shown
smiles,measurement,setting,value
CCCCCCCCCCCCCCCCSC[C@H](COP(=O)(O)OCC[N+](C)(C)C)NC(=O)CCCCCCCCCCCCCCC [thioetheramide-PC],inhibition of NF-κB,NF-κB [1]; [11],nor inhibit NF-κB
same,induction of p53,p53 [2]; [11],could neither induce p53
CC[C@]1(O)C[C@@H]2CN(CCc3c([nH]c4ccccc34)[C@@](C(=O)OC)(c3cc4c(cc3OC)N(C)[C@H]3[C@@](O)(C(=O)OC)[C@H](OC(C)=O)[C@]5(CC)C=CCN6CC[C@]43[C@@H]65)C2)C1 [vinblastine],toxicity to p53-deficient cells (p53 dependence of cytotoxicity),p53-deficient cells [3],equally or even more toxic than 9AA to p53-deficient cells
CC(=O)O[C@H]1C(=O)[C@@]2(C)[C@H]([C@H](OC(=O)c3ccccc3)[C@]3(O)C[C@H](OC(=O)[C@H](O)[C@@H](NC(=O)c4ccccc4)c4ccccc4)C(C)=C1C3(C)C)[C@]1(OC(C)=O)CO[C@@H]1C[C@@H]2O [taxol],toxicity to p53-deficient cells (p53 dependence of cytotoxicity),p53-deficient cells [3],equally or even more toxic than 9AA to p53-deficient cells
"Nc1c2ccccc2nc2ccccc12 [9AA, 9-aminoacridine]",activation of the p53-dependent reporter (p53 transactivation) in RCC,p53 [4],structure primarily responsible for induction of the reporter
same,IC50 in RCC cells compared with non-RCC cells,"RCC cell lines; 6 RCC and 6 non-RCC cell lines, growth inhibition assay",in the same range as for non-RCC cells
same,sensitivity of RCC-derived cell lines versus normal kidney epithelial (NKE) cells,RCC cell lines; 72 h after treatment,more toxic for RCC than for NKE cells; also recorded: more sensitive to 9AA than normal kidney epithelial cells
same,proportion of phosphorylated serine 536 in the p65 subunit of NF-κB,p65 subunit of NF-κB,reduce the proportion of phosphorylated serine 536; also recorded: decreases the phosphorylation of p65 in response to TNF
same,level of IκBα,"IκBα; PC-3 cells 10 μM 1-8 h, MCF7 cells 10 μM",gradual decrease or even complete disappearance of IκBα
same,TNF-stimulated induction of IκBα,"IκBα; TNF 10 ng/ml, 9AA 10 μM",blocked; also recorded: inhibits reconstitution of the level of IκB protein
same,levels of the endogenous proteins p21 and Mdm2,p53 [5]; cells treated for 16 h,dose-dependent increase
same,p53 mRNA expression,p53 [5]; data not shown,No increase
same,stabilization and accumulation of p53 protein,"p53 [5]; treated cells (HT1080, 5 μM 9AA, 16 hours in FIG. 6)",induced stabilization and accumulation of p53 protein; also recorded: leads to p53 stabilization
same,phosphorylation of histone H2A.X,histone H2A.X,Neither 9AA nor QC induced phosphorylation of histone H2A.X
same,poisoning of topoisomerase II,topoisomerase II,no such activity
same,basal and TNF-induced NF-κB reporter activities,"NF-κB [1]; H1299-NF-kB-Luc cells, TNF 10 ng/ml",strong dose-dependent suppression; also recorded: capable of inhibiting both basal and TNF-induced activities of NF-κB
same,inhibition of NF-κB transactivation induced by trichostatin A,"NF-κB [1]; H1299 cells, 100 nM TSA, 9AA 20 μM, 4 or 16 hours",could no longer be blocked by 9AA; also recorded: does not inhibit
same,toxicity to p53-deficient cells (p53 dependence of cytotoxicity),p53-deficient cells [6],less toxic to p53-deficient cells
same,cellular effect in RCC45 and RCC54 cells,RCC45 and RCC54 cells; 2 μM,growth arrest
same,cellular effect in RCC45 and RCC54 cells,RCC45 and RCC54 cells; 10 μM,apoptosis
same,effect on the cell cycle,HT1080 cells; 3 μM,growth arrest
same,effect on the cell cycle,HT1080 cells; 20 μM,apoptosis
same,phosphorylation of p53,p53 [7],did not induce the phosphorylation of p53
same,phosphorylation of p53 serine 392,p53 [7],increasingly phosphorylated
same,binding of NF-κB to DNA,"NF-κB [8]; H1299-NF-κBLuc cells, with TNF 10 ng/ml, 6 h, gel-shift",significant increase in the binding of NF-κB to DNA
same,nuclear accumulation and retention of NF-κB (p65) complexes,"NF-κB [8]; TNF 10 ng/ml, 10 μM",greatly prolonged the time of its presence in nuclei; also recorded: causes nuclear accumulation of inactive NF-κB; also recorded: causes accumulation of p65/p50 and p50/p50 NF-κB complexes in the nuclei
same,composition of NF-κB complexes,"NF-κB [8]; gel-shift assays with antibodies, H1299 cells",did not significantly change the composition of NF-κB complexes
same,inhibition of proteasomal activity,proteasomal activity,ruled out
same,activation of a p53-dependent reporter in the presence of sr-IκB,p53 [9],could not further activate
same,time of peak (maximum) p53 reporter activity,p53 [2],24 h
same,activation of p53-mediated transcription compared with DNA-damaging agents,"p53 [2]; tumor cells with wild-type p53, 9AA 1-10 μM, doxorubicin 0.2-2 μM, 24 h",more strongly than doxorubicin in the majority of tumor cells tested; also recorded: more strongly than DNA-damaging agents
O=c1[nH]cc(F)c(=O)[nH]1 [5-fluorouracil],weight loss,ACHN cells,up to 20%
COc1cc(CNC(=O)CCCC/C=C/C(C)C)ccc1O [capsaicin],basal activity of NF-κB,NF-κB [1],did not reduce the basal activity
same,activation of p53 by known NF-κB inhibitors,p53 [2]; data not shown,capable of activating p53
CC(/C=C/C(=O)NO)=C\[C@@H](C)C(=O)c1ccc(N(C)C)cc1 [trichostatin A],NF-κB-dependent transcription,"NF-κB [1]; H1299 cells, 100 nM TSA, 4 or 16 hours",strong activation of NF-κB-dependent transcription
O=C(O)c1cc(/N=N/c2ccc(S(=O)(=O)Nc3ccccn3)cc2)ccc1O [sulfasalazine],basal activity of NF-κB,NF-κB [1],did not reduce the basal activity
same,activation of p53 by known NF-κB inhibitors,p53 [2]; data not shown,capable of activating p53
CC[C@@]1(O)C(=O)OCc2c1cc1n(c2=O)Cc2cc3ccccc3nc2-1 [camptothecin],toxicity to p53-deficient cells (p53 dependence of cytotoxicity),p53-deficient cells [3],equally or even more toxic than 9AA to p53-deficient cells
Cc1ccc(S(=O)(=O)/C=C/C#N)cc1 [Bay11-7082],basal activity of NF-κB,NF-κB [1],did not reduce the basal activity
same,activation of p53 by known NF-κB inhibitors,p53 [2]; data not shown,capable of activating p53
COc1cccc2c1C(=O)c1c(O)c3c(c(O)c1C2=O)C[C@@](O)(C(=O)CO)C[C@@H]3O[C@H]1C[C@H](N)[C@H](O)[C@H](C)O1 [doxorubicin],activation of the p53-dependent reporter (p53 transactivation) in RCC,p53 [4],weakly activating
same,p53-responsive reporter induction in normal kidney samples,p53 [10],no reporter induction
same,toxicity to p53-deficient cells (p53 dependence of cytotoxicity),p53-deficient cells [3],equally or even more toxic than 9AA to p53-deficient cells
same,time of peak (maximum) p53 reporter activity,p53 [2],8 to 12 h
